The target in data set [1] is T1, recombinant human AADAC (Homo sapiens, UniProt P22760).
T1 construct: purchased CUSABIO Biotech Co., Ltd. (Wuhan, China)
T1 sequence (P22760 1-399): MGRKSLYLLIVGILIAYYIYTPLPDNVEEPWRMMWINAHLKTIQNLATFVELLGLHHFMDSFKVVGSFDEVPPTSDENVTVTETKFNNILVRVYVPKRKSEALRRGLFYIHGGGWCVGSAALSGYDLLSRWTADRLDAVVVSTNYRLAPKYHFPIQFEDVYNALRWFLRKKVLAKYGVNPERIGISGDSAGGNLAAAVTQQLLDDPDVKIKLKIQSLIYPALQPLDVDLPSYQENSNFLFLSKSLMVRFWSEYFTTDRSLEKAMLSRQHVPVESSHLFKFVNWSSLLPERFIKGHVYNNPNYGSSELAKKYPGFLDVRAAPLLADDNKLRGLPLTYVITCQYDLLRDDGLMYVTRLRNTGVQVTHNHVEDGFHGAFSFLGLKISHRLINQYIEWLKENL
As to the kind of experiment: IMMH-010 hydrolysis by recombinant human AADAC. The format is in vitro ADME. The following applies: 10 μM, AADAC 0.1 mg/mL, 15 min, 37 °C. As to the method: (§1) To verify the role of CES1, CES2, and AADAC in human metabolism of […]-010 (10 μM) was incubated individually with recombinant human CES1, CES2, and AADAC (0.1 mg protein/mL) at 37 °C for 15 min. Lidocaine (500 μM), CPT-11 (2 μM), and phenacetin (1 mM), which are substrates of CES1, CES2, and AADAC, were used as positive controls.

Data set [2] addresses T2, CES1 (Homo sapiens, UniProt P23141).
T2 sequence (P23141 18-567): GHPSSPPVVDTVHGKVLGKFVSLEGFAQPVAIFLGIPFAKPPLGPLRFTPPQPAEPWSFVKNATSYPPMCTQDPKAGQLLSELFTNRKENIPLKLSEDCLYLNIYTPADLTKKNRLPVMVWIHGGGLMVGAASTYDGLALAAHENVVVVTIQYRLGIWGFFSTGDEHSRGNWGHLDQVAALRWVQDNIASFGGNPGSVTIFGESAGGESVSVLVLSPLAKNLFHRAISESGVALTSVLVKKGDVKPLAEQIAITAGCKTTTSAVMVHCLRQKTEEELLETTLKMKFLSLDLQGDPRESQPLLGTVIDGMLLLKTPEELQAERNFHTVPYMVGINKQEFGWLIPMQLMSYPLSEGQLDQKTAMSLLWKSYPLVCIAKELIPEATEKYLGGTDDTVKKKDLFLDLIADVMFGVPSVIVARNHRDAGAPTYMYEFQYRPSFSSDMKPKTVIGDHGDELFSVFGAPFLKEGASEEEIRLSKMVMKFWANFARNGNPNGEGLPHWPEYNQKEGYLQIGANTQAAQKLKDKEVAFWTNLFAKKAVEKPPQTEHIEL
Nature of the data set: IMMH-010 hydrolysis by recombinant human CES1. The data set is classed as in vitro ADME. Further details: purchased Cypex Ltd. (Dundee, United Kingdom). The following applies: 10 μM, CES1 0.1 mg/mL, 15 min, 37 °C. As to the method: as §1

As for `CC(C)OC(=O)[C@H](CO)NCc1cc(Cl)c(OCc2cccc(-c3ccccc3)c2Br)cc1OCc1cccnc1` [IMMH-010], the results for the “remaining amount of IMMH-010” value in data set [1] and in data set [2] were 98.7% and 12.9%, respectively.

These data come from article PMC8143347, “Metabolism and Interspecies Variation of IMMH-010, a Programmed Cell Death Ligand 1 Inhibitor Prodrug” (Pharmaceutics, 2021).
